Assay: in vitro
Conditions: human, plasma, PPB

SMILES	fraction unbound at 5 h
CCCc1cc(C2=N[C@@H](C(=O)NO)CO2)cc(OC)c1OC	0.0568
Cc1cnc(Nc2nc(N[C@@H](C)c3ncc(F)cn3)nc(N3CCOCC3)c2F)s1	0.069
CN[C@@H](C)C(=O)N[C@H](C(=O)N1CCC[C@H]1C(=O)N[C@@H]1CCCc2ccccc21)C(C)(C)C	0.0801
O=C(/C=C/c1ccccc1Cl)Nc1ccc2c(c1)C(=O)NC2=O	0.0948
O=C(COc1ccccc1Cl)c1ccc[nH]1	0.0676
O=C(O)c1ccc2nc(C(F)(F)F)[nH]c2c1	0.101
CNC(=O)c1[nH]cnc1C(=O)Nc1ccc(Cl)cc1	0.0268
Cc1sc2c(c1C)c(=O)n(-c1ccc(F)cc1)c(=O)n2CC(=O)NCc1ccco1	0.0268
COc1cccc(C(=O)N2C(C(=O)O)CSC2c2ccccc2Cl)c1 (stereo not drawn)	0.0139
NS(=O)(=O)c1ccc(N2N=C(c3ccc(Br)cc3)CC2c2ccc(F)cc2)cc1 (stereo not drawn)	0.105
O=C(CCS(=O)(=O)c1ccc(Br)cc1)NCCc1ccccc1	0.04
O=C(c1ccccc1)N1CCC(c2nc3ccccc3o2)CC1	0.0457
CCOC(=O)[C@H](CCc1ccccc1)N[C@@H](C)C(=O)N1Cc2ccccc2C[C@H]1C(=O)O	0.0418
Cc1nccn1-c1ccc(COc2cc(F)cc(C3(C(N)=O)CCOCC3)c2)cc1	0.101
C[C@H](Nc1ncc(Cl)c(Nc2cc(C3CC3)[nH]n2)n1)c1ncc(F)cn1	0.0568
Cc1cc(Nc2nc(N[C@@H](C)c3ncc(F)cn3)nc(N3CCOCC3)c2F)n[nH]1	0.0836
C[C@H]1CN(Cc2cc(Cl)ccc2OCC(=O)O)CCN1S(=O)(=O)c1ccccc1	0.0274
CC(C)(C)COc1ccc(-n2cc(C(=O)O)cn2)cc1C#N	0.0224
O=C(CN1CCCC1)N1c2ccccc2Sc2ccc(C(F)(F)F)cc21	0.0229
COc1ccc(Cl)cc1NC(=O)CCS(=O)(=O)c1ccc(C)cc1	0.0219
CC(C)c1ccc(/C=N/NC(=O)c2ccc(O)cc2)cc1	0.0568
CN[C@@H](C)C(=O)N[C@H](C(=O)N[C@H]1CCCN([C@@H]2CCCc3ccccc32)C1)C1CCCCC1	0.0676
CN[C@@H](C)C(=O)N[C@H](C(=O)N[C@H]1CCCN(CCc2ccc(F)cc2)C1)C(C)(C)C	0.0784
CN[C@@H](C)C(=O)N[C@H](C(=O)N[C@H]1CCCN(CCc2ccc(Cl)cc2)C1)C(C)(C)C	0.0293
CN[C@@H](C)C(=O)N[C@H](C(=O)N[C@H]1CCCN(CCc2ccc(Br)cc2)C1)C(C)(C)C	0.0229

SMILES	fraction unbound at 5 h
COc1cc(OC)c(S(=O)(=O)N2c3ccccc3CCC2C)cc1NC(=O)CSc1ccncc1 (stereo not drawn)	0.0293
COc1cc(OC)c(S(=O)(=O)NCc2ccccc2N2CCC(CC(=O)O)CC2)cc1NC(=O)CCC(=O)O	0.0872
Cc1nccn1-c1ccc(Sc2cccc(C3(C(N)=O)CCOCC3)c2)cc1	0.069
CNc1c(Br)cnc2[nH]c(-c3ccc(OCCN4CCOCC4)cc3)nc12	0.0149
COc1ccc(-c2nc3c(NCCCNC(=O)c4cccnc4)c(Br)cnc3[nH]2)cc1	0.013
CC(C)COc1cccc(/C=C2\SC(=O)NC2=O)c1N1CCC[C@@H](N)C1	0.0119
O=C(O)/C=C/c1cccc(-c2cnc3[nH]ccc3c2)c1	0.0219
CCCNC(=O)c1cc2c(-n3ccc(C(F)(F)F)n3)c(-c3cncc(C(=O)O)c3)cnc2[nH]1	0.0768
CCNC(=O)c1cc2c(-n3ccc(C(F)(F)F)n3)c(-c3cncc(-c4n[nH]c(=O)o4)c3)cnc2[nH]1	0.0437
COc1ncc(-c2cccc3c2C[C@H](NC(=O)c2ccc(OCCC(F)(F)F)nc2)CO3)cn1	0.0133
CC(C)(C)Oc1ccc(C(=O)Nc2ccc3sc(CO)nc3c2)cc1	0.051
CCN(Cc1cccc2ccccc12)c1cc(N2CCOCC2)nc(=O)[nH]1	0.0358
CC(C)COc1ccc(-c2cc(=O)[nH]c(N)n2)cc1	0.0374
CC(C)COc1ccc(-c2cc(=O)[nH]c(N)n2)cc1C#N	0.0409
COc1cc(OC)c(S(=O)(=O)N2c3ccccc3Oc3ccccc32)cc1NC(=O)/C=C/C(=O)O	0.024
Cc1cn([C@H]2CCCN(S(=O)(=O)c3cccc(Oc4ccccc4)c3)C2)c(=O)[nH]c1=O	0.0262
Cc1cn([C@H]2CCCN(S(=O)(=O)c3ccc(C#N)c(Oc4cccc(Cl)c4)c3)C2)c(=O)[nH]c1=O	0.0229
CN(C)CCNC(=O)c1ccc(Nc2ncc3cc(-c4ccncc4)ccc3n2)cc1	0.0111
COc1cccc(OC)c1OCCNCC1COc2ccccc2O1 (stereo not drawn)	0.024
C[C@H](CO)Nc1nc(SCc2cccc(F)c2F)nc2[nH]ncc12	0.035
O=C(O)COn1c(-c2ccccc2)nc2ccc([N+](=O)[O-])cc21	0.0139
Cc1ncc(NC(=O)c2cc(NC(=O)c3cccc(C(F)(F)F)c3)ccc2C)s1	0.0119
O=C(Nc1ccc(CCO)cc1)c1cc2cc(Cl)ccc2[nH]1	0.0139
O=c1[nH]cnc2scc(-c3cccs3)c12	0.0111
O=C(Nc1cccc2cccnc12)c1ccc(N2C(=O)[C@@H]3[C@H](C2=O)[C@@H]2C=C[C@H]3C2)cc1	0.0111

More lines, now with the values ahead:

fraction unbound at 5 h	SMILES
0.0262	Cc1cnc(Nc2cc(N3CCOCC3)nc(N[C@@H](C)c3ccc(F)cn3)n2)s1
0.0437	COc1cccc(-c2cc3c(N[C@H]4CCCNC4)ncc(C(N)=O)c3s2)c1
0.0383	CCOc1cc2nnc(C(N)=O)c(Nc3ccc(F)cc3F)c2cc1N1CCN(C)CC1
0.0948	COc1ccc2c(c1)N(CCN1CCC(NCc3cc4c(cn3)OCCO4)CC1)C(=O)CS2
0.0437	COc1cc(OC)c(S(=O)(=O)N2c3ccccc3CC2C)cc1NC(C)=O (stereo not drawn)
0.0752	CC(=O)Nc1ccc2c(c1)N(c1cc(NC3CC3)n3ncc(C#N)c3n1)CCO2
0.0262	CC(=O)Nc1ccc2c(c1)N(c1cc(NC3CC3)n3ncc(C#N)c3n1)CCC2
0.0179	CC(=O)Nc1ccc2c(c1)c(-c1cc(NC3CC3)n3ncc(C#N)c3n1)cn2CCO
0.016	COC(=O)CCn1cc(-c2cc(NC3CC3)n3ncc(C#N)c3n2)c2cc(NC(C)=O)ccc21
0.0488	COc1cnc(-c2ccccn2)nc1N1CCCCC1
0.0114	O=C(O)COc1ccccc1N1CCC(CN2CCC(Oc3ccc(Cl)c(Cl)c3)CC2)CC1
0.0268	Cc1cn([C@H]2CCCN(Cc3ccc(C(=O)O)c(Oc4cccc(Cl)c4)c3)C2)c(=O)[nH]c1=O
0.0383	Cc1cccc(Oc2cc(CN3CCC[C@H](n4cc(C)c(=O)[nH]c4=O)C3)ccc2C(=O)O)c1
0.0544	COc1cc(OC)c(S(=O)(=O)N2c3ccccc3CCC2C)cc1NC(=O)Cc1ccnc(F)c1 (stereo not drawn)
0.0647	COc1cc(OC)c(S(=O)(=O)N2c3ccccc3CCC2C)cc1NC(=O)CCc1nn[nH]n1 (stereo not drawn)
0.0568	Cc1cccc(Oc2cc(S(=O)(=O)N3CCC[C@H](n4cc(C)c(=O)[nH]c4=O)C3)ccc2C(=O)O)c1
0.0251	COc1ccc(S(=O)(=O)N2CCC[C@H](n3cc(C)c(=O)[nH]c3=O)C2)cc1Oc1cccc(Cl)c1
0.0139	COCCNC(=O)c1ccc(Nc2ncc3cc(-c4ccncc4C)ccc3n2)cc1
0.0262	COCCNC(=O)c1ccc(Nc2ncc3cc(-c4cnccc4C)ccc3n2)cc1
0.028	c1cc(-c2ccc3nc(Nc4ccc(OCCN5CCCC5)cc4)ncc3c2)ccn1
0.0183	CCOc1cc2ncc(C(N)=O)c(Nc3cccc(Cl)c3Cl)c2cc1N1CCN(CC)CC1
0.0736	CCOc1cc2ncc(C(N)=O)c(Nc3cc(F)ccc3F)c2cc1N1CCN(C)CC1

fraction unbound at 5 h	SMILES
0.0488	CC(C)Oc1cc2ncc(C(N)=O)c(Nc3cccc(Cl)c3F)c2cc1N1CCN(C)CC1
0.0146	CCOc1cc2ncc(C(N)=O)c(Nc3cccc(Cl)c3Cl)c2cc1N1CCN(C(C)C)CC1
0.0163	CCOc1cc2ncc(C(N)=O)c(Nc3cccc(Cl)c3Cl)c2cc1N1CCCN(C)CC1
0.103	COCCOc1cc2ncc(C(N)=O)c(Nc3cccc(Cl)c3Cl)c2cc1N1CCN(C)CC1
0.0447	COc1cc2ncc(C(N)=O)c(Nc3cccc(Cl)c3Cl)c2cc1N1CCN(C)CC1
0.0581	CN1CCN(c2ccc3ncc(C(N)=O)c(Nc4ccc(Cl)c(Cl)c4)c3c2)CC1
0.0457	CN1CCN(c2ccc3ncc(C(N)=O)c(Nc4cccc(Cl)c4Cl)c3c2)CC1
0.0968	CCOc1cc2ncc(C(N)=O)c(Nc3cccc(Cl)c3Cl)c2cc1N1CCN(C(C)=O)CC1
0.0219	CCOc1cc2ncc(C(N)=O)c(Nc3ccc(F)cc3F)c2cc1N1CCCN(C2CC2)CC1
0.0171	CC(C)Oc1cc2ncc(C(N)=O)c(Nc3ccc(F)cc3F)c2cc1N1CCN(C)CC1
0.0321	COc1cc2ncc(C(N)=O)c(Nc3ccc(Cl)cc3Cl)c2cc1N1CCN(C)CC1
0.0437	CN1CCN(c2cc3c(Nc4cccc(Cl)c4Cl)c(C(N)=O)cnc3cc2F)CC1
0.0358	COc1cc2ncc(C(N)=O)c(Nc3ccc(Cl)c(Cl)c3)c2cc1N1CCN(C)CC1
0.0836	CCOc1cc2ncc(C(N)=O)c(Nc3ccc(F)cc3F)c2cc1N1CCOCC1
0.0343	CCOc1cc2ncc(C(N)=O)c(Nc3ccc(F)c(Cl)c3)c2cc1N1CCN(C)CC1
0.0209	COc1cc2ncc(C(N)=O)c(Nc3cccc(Cl)c3Cl)c2cc1NCCN1CCCCC1
0.0477	CCOc1cc2ncc(C(N)=O)c(Nc3cccc(Cl)c3Cl)c2cc1N1CCN(CCO)CC1
0.0171	CCOc1cc2ncc(C(N)=O)c(Nc3cccc(Cl)c3Cl)c2cc1N1CCN(CCOC)CC1
0.0457	CCOc1cc2ncc(C(N)=O)c(Nc3ccc(F)cc3F)c2cc1N1CCN(CC)CC1
0.0139	CC(C)Oc1cc2ncc(C(N)=O)c(Nc3cccc(Cl)c3Cl)c2cc1N1CCN(C)CC1
0.0358	CN1CCN(C2=Nc3ccccc3Nc3ccc(OS(=O)(=O)C(F)(F)F)cc32)CC1

Source: ChEMBL document CHEMBL3301361, “Experimental in vitro DMPK and physicochemical data on a set of publicly disclosed compounds”
